Measured values reported in publication PMC4352194, “Physicochemical and Biological Properties of Oxovanadium(IV), Cobalt(II) and Nickel(II) Complexes with Oxydiacetate Anions” (Biological Trace Element Research, 2014).

Assays:
[1] = tested on: Human Dermal Fibroblasts adult (HDFa) cell line; test: Proliferation assay (BrdU ELISA); format: cell-based; conditions: 6 day-exposure, 24-h BrdU incorporation
Experimental: The Human Dermal Fibroblasts adult (HDFa) cell line (Cascade Biologics) was used in all experiments. Unless otherwise specified, cells were grown in the Dulbecco’s modified Eagle’s medium (DMEM) supplemented with 10 % fetal bovine serum (FBS) and 1× antibiotic and antimycotic solutions (all purchased from Sigma) and incubated at 310.15 K in the humidified 5 % CO2 atmosphere. The antiproliferative activity of compounds was assessed using the Cell Proliferation ELISA, BrdU (colorimetric) kit (Roche Applied Science). Cells were seeded at a number of 10^3 cells per well of 96-well tissue culture plate and incubated overnight at 310.15 K. The growth medium was substituted with the medium supplemented with tested compounds, and after 5 days of incubation, labelling with 5-bromo-2′-deoxyuridine (BrdU) was performed for another 24 h. Following steps were performed according to the manufacturer’s protocol.

[2] = Scavenging of superoxide radicals (NBT method); conditions: complex concentration causing 50 % reduction of superoxide ion referred to that of ascorbic acid; NBT assay in DMSO
Experimental: Nitro blue tetrazolium (NBT, 98 % purity), KO2 (96 % purity) and 18-Crown-6 (99 % purity) were purchased from Sigma-Aldrich. The superoxide scavenging activity of the complexes was determined by using their ability to inhibit the reduction of nitro blue tetrazolium (NBT) by superoxide ions. UV–vis measurements were carried out by using the Perkin-Elmer Lambda 650 spectrophotometer equipped with the temperature control—Peltier system with a scan accuracy of 1 and 1-nm slit width. The measurements were carried out in DMSO solution at 288.15 K according to the method described in the literature. Superoxide free radicals were generated by dissolving 6.5-mg portion of KO2 powder into DMSO (50 mL) together with 90 mg of 18-crown-6-ether. NBT (10 mg) was dissolved directly in DMSO (10 mL). In general, 1.5 mL of DMSO/KO2/18-crown-6 mixture was added to 0.5 mL of the sample to be assayed. The mixture was kept for 20 min and then 0.1 mL of NBT solution was added while stirring. The absorbance was monitored spectrophotometrically at 560 nm. The control test was carried out under the same experimental condition under assumption that KO2 and 18-crown-6 were absent in DMSO.
The ability of the complexes to scavenge superoxide anion radicals was evaluated by the NBT assay. The measurements were carried out in the DMSO solution in which KO2 was dissolved via the use of a crown ether to generate superoxide radicals (see Material and Methods).
The antioxidant activities of the complexes towards O2 ^− were compared to each other. Based on the obtained relationships (Fig. 3), the complex concentrations causing the 50 % reduction of the concentration of the superoxide ion were calculated. The obtained values were referred to the concentration of ascorbic acid causing the same O2 ^− reduction effect measured at the same experimental conditions. In this way, ascorbic acid equivalents of the complexes were obtained. They are equal 0.35, 1.11 and 4.50 for VO(ODA), Ni(ODA) and Co(ODA), respectively.

Bacillus subtilis = test: Broth dilution test (MIC, MBC); format: cell-based; conditions: B. subtilis, broth dilution 1–2048 μg/mL
Experimental: (§1) The antimicrobial activity of complex compounds was assessed against Bacillus subtilis, Escherichia coli, Enterococcus faecalis, Pseudomonas aeruginosa, Staphylococcus aureus, Staphylococcus epidermidis (all strains were from the collection of the Department of Molecular Biology, University of Gdańsk). All bacteria were cultured in the Luria-Bertani (LB) broth at 310.15 K in the air with shaking. LB agar plates were prepared by the supplementation of LB broth with the 1.5 % bacteriological agar. Stock solutions of complex compounds were freshly prepared in the LB broth at the concentration of 25 mg/mL. The antimicrobial activity was assessed with the broth dilution method. The LB broth supplemented with the twofold diluted amount of tested compounds (dilution range 1–2048 μg/mL) was inoculated with 10^6 cfu of bacteria cells per well of 96-well plate. Cultures were incubated at 310.15 K with shaking for 18–20 h in the air, and the bacterial growth was estimated by measuring the optical density at 600 nm with the LB broth as a background control. A minimum inhibitory concentration (MIC) was defined as the lowest concentration of the tested compound (in μg/mL) at which there was no visible growth of bacteria compared to the growth observed for the inoculated LB broth without any supplementation. […] The concentration (in μg/mL) at which no colonies were observed was defined as MBC.

Pseudomonas aeruginosa = test: Broth dilution test (MIC, MBC); format: cell-based; conditions: P. aeruginosa, broth dilution 1–2048 μg/mL
Experimental: as §1

Staphylococcus aureus = test: Broth dilution test (MIC, MBC); format: cell-based; conditions: S. aureus; for MIC: broth dilution 1–2048 μg/mL
Experimental: as §1

Enterococcus faecalis = test: Broth dilution test (MIC, MBC); format: cell-based; conditions: E. faecalis; for MIC: broth dilution 1–2048 μg/mL
Experimental: as §1

[3] = tested on: Staphylococcus epidermidis; test: Broth dilution test (MIC, MBC); format: cell-based; conditions: S. epidermidis; for MIC: broth dilution 1–2048 μg/mL
Experimental: as §1

Escherichia coli = test: Broth dilution test (MIC, MBC); format: cell-based; conditions: E. coli; for MIC: broth dilution 1–2048 μg/mL
Experimental: as §1

[4] = tested on: Human Dermal Fibroblasts adult (HDFa) cell line; test: Cytoprotective activity against H2O2 oxidative damage (MTT); format: cell-based
Experimental: The Human Dermal Fibroblasts adult (HDFa) cell line (Cascade Biologics) was used in all experiments. Unless otherwise specified, cells were grown in the Dulbecco’s modified Eagle’s medium (DMEM) supplemented with 10 % fetal bovine serum (FBS) and 1× antibiotic and antimycotic solutions (all purchased from Sigma) and incubated at 310.15 K in the humidified 5 % CO2 atmosphere. Cells were plated at 2 × 10^3 cells per well of 96-well tissue culture plate. After an overnight incubation, cells were washed with DMEM without FBS and next treated with 1 mM hydrogen peroxide (H2O2) (Sigma) together with different concentrations of tested complex compounds or with 1 mM H2O2 alone to induce the oxidative damage to cells resulting in the necrotic death. Mixtures were prepared in the growth medium (DMEM) without FBS. Cells treated with the growth medium only were used as a control of normal viability. After 1-h incubation at 310.15 K, the medium was removed and cells were washed with the growth medium containing 10 % FBS to stop the H2O2 activity. Next, either the cell viability was assessed using the MTT solution (see previous paragraph) or additional incubation of cells in DMEM containing 10 % FBS for another 48 h was performed and then cells were tested for the viability (the MTT assay). The cytoprotective activity of complex compounds against the oxidative damage was calculated relatively to untreated control cells, not exposed to H2O2.

[5] = 1 mM H2O2 with complex 1 h, then additional 48-h incubation in growth medium
[6] = 1 mM H2O2 with complex, 1-h exposure

| SMILES | IC25 [1] | IC50 [1] | IC75 [1] | ascorbic acid equivalents [2] | MIC (Bacillus subtilis) | MIC (Pseudomonas aeruginosa) | MBC (Staphylococcus aureus) | bacteriostatic or bactericidal activity (Staphylococcus aureus) | MIC (Staphylococcus aureus) | MIC (Enterococcus faecalis) | MBC [3] | bacteriostatic or bactericidal activity [3] | MIC [3] | MIC (Escherichia coli) | cytoprotective activity against oxidative damage [4, 5] | cytoprotective activity against oxidative damage [4, 6] | other results |
| --- | --- | --- | --- | --- | --- | --- | --- | --- | --- | --- | --- | --- | --- | --- | --- | --- | --- |
| O.O.O.O=C(O)COCC(=O)O.[Co] [Co(ODA), [Co(ODA)(H2O)2]·H2O] | 128.90 µM | 175 µM | >1000 µM | 4.50 | 256 µg/mL | 256 µg/mL | 512 µg/mL | bactericidal activity | 256 µg/mL | 256 µg/mL | 2048 µg/mL | bactericidal activity | 256 µg/mL | 512 µg/mL | grow and proliferate at similar levels to untreated control cells | highest dose- and time-dependent protective effect | IC50 ([1]; listed as Co(II) complex): ~200 µM; MBC (Escherichia coli): 1024 µg/mL; bacteriostatic or bactericidal activity (Escherichia coli): bactericidal activity; viability of cells ([4]; 1 mM H2O2 together with 500 μM complex, 1 h): ca. 100% |
| O.O.O=C([O-])COCC(=O)[O-].[O]=[V+2] [VO(ODA), [VO(ODA)(H2O)2]] | 23.41 µM | 24.9 µM | 26.42 µM | 0.35 | 2048 µg/mL | 1024 µg/mL | 2048 µg/mL | bactericidal activity | 1024 µg/mL | 1024 µg/mL | 2048 µg/mL | bactericidal activity | 2048 µg/mL | 2048 µg/mL | induces the cell death | to some extent, exhibits the cytoprotective activity | IC50 ([1]; listed as oxovanadium(IV) complex): 25 µM; MBC (Enterococcus faecalis): 1024 µg/mL; bacteriostatic or bactericidal activity (Enterococcus faecalis): bactericidal activity |
| O.O.O.O.O.O.O.O.O.O=C([O-])COCC(=O)[O-].O=C([O-])COCC(=O)[O-].[Ni+2].[Ni+2] [Ni(ODA), [Ni(ODA)(H2O)3]·1.5H2O] | 148.65 µM | 220 µM | >1000 µM | 1.11 | 512 µg/mL | 1024 µg/mL |  |  | 1024 µg/mL | 1024 µg/mL | 2048 µg/mL | bactericidal activity | 512 µg/mL | 1024 µg/mL | no influence on the viability of cells | no influence on the viability of cells | IC50 ([1]; listed as Ni(II) complex): ~200 µM |
